Results on one molecule are retold here after US20030049600A1, “STEALTH VIRUS DETECTION IN THE CHRONIC FATIGUE SYNDROME” (priority 1991, published 2003).

This test relates to fibroblasts. As to the kind of experiment: Toxic effect on cultured fibroblasts, mimic of stealth virus culture toxicity. To be noted: 5 nM. It is filed as cell-based. The source says:
A lack of regular refeeding of the cultures can result in a tendency for the CPE to abort and not to progress. This effect is not seen with CMV infected cultures. In unfed stealth virus cultures and even with regular refeeding, one can observe a toxic effect on many of the remaining cells. Culture cells appear to lose a degree of vitality and become duller in appearance compared to control cultures. The fibroblasts can assume somewhat of a pavement appearance, instead of the elongated shape.

On to `C=C1[C@@H](O)[C@@H]2O[C@]3(CC[C@H](/C=C/[C@@H](C)[C@@H]4CC(C)=C[C@@]5(O[C@H](C[C@@](C)(O)C(=O)O)CC[C@H]5O)O4)O3)CC[C@H]2O[C@@H]1[C@@H](O)C[C@H](C)[C@H]1O[C@@]2(CCCCO2)CC[C@H]1C` [okadaic acid], for which the “toxic effect on culture cells (loss of vitality, duller, pavement appearance)” value is on record as “Some of these changes can be mimicked”.
